The results in this text go back to patent publication US12065442B2, “Tropomyosin receptor kinase (TRK) degradation compounds and methods of use” (Cullgen (Shanghai), Inc., priority 2018, dated 2024).

Broadly, the IC50 is the concentration needed to halve the response being measured.

One assay relates to KM12 cells. The assay can be described thus: Cell viability assay (CellTiter-Glo) in KM12 cells. The class given is cell-based. To be noted: Homo sapiens, 72 h; Table 2; KM12 cell viability, CellTiter-Glo, 3 days; read-out: IC50. In general terms: ATP-based viability assays read luminescence as a measure of living cells.
On to `Cc1ncsc1-c1ccc(CNC(=O)[C@@H]2C[C@@H](O)CN2C(=O)[C@@H](NC(=O)CCCCCCCC(=O)N2CCN(c3ccc(C(=O)Nc4n[nH]c5ccc(Cc6cc(F)cc(F)c6)cc45)c(NC4CCOCC4)c3)CC2)C(C)(C)C)cc1` [CPD-037, (2S,4R)-1-((S)-2-(9-(4-(4-((5-(3,5-Difluorobenzyl)-1H-indazol-3-yl)carbamoyl)-3-((tetrahydro-2H-pyran-4-yl)amino)phenyl)piperazin-1-yl)-9-oxononanamido)-3,3-dimethylbutanoyl)-4-hydroxy-N-(4-(4-methylthiazol-5-yl)benzyl)pyrrolidine-2-carboxamide], for which the 50% inhibitory concentration (IC50) turned out to be 150 nM.

Regarding `Cc1ncsc1-c1ccc(CNC(=O)[C@@H]2C[C@@H](O)CN2C(=O)[C@@H](NC(=O)COCC(=O)N2CCN(c3ccc(C(=O)Nc4n[nH]c5ccc(Cc6cc(F)cc(F)c6)cc45)c(NC4CCOCC4)c3)CC2)C(C)(C)C)cc1` [CPD-045, (2S,4R)-1-((S)-2-(2-(2-(4-(4-((5-(3,5-Difluorobenzyl)-1H-indazol-3-yl)carbamoyl)-3-((tetrahydro-2H-pyran-4-yl)amino)phenyl)piperazin-1-yl)-2-oxoethoxy)acetamido)-3,3-dimethylbutanoyl)-4-hydroxy-N-(4-(4-methylthiazol-5-yl)benzyl)pyrrolidine-2-carboxamide], the IC50 was more than 1000 nM.

For the compound `Cc1ncsc1-c1ccc(CNC(=O)[C@@H]2C[C@@H](O)CN2C(=O)[C@@H](NC(=O)CCCCCCCCCC(=O)N2CCN(c3cccc(-c4cnc5ccc(N6CCC[C@@H]6c6cccc(F)c6)nn45)n3)CC2)C(C)(C)C)cc1` [CPD-022, (2S,4R)-1-((S)-2-(11-(4-(6-(6-((R)-2-(3-Fluorophenyl)pyrrolidin-1-yl)imidazo[1,2-b]pyridazin-3-yl)pyridin-2-yl)piperazin-1-yl)-11-oxoundecanamido)-3,3-dimethylbutanoyl)-4-hydroxy-N-(4-(4-methylthiazol-5-yl)benzyl)pyrrolidine-2-carboxamide], the IC50 came to 100 nM.

Regarding `Cc1ncsc1-c1ccc(CNC(=O)[C@@H]2C[C@@H](O)CN2C(=O)[C@@H](NC(=O)CCOCCOCCOCCC(=O)N2CCN(c3cccc(-c4cnc5ccc(N6CCC[C@@H]6c6cccc(F)c6)nn45)n3)CC2)C(C)(C)C)cc1` [CPD-016, (2S,4R)-1-((S)-2-(tert-butyl)-16-(4-(6-(6-((R)-2-(3-Fluorophenyl)pyrrolidin-1-yl)imidazo[1,2-b]pyridazin-3-yl)pyridin-2-yl)piperazin-1-yl)-4,16-dioxo-7,10,13-trioxa-3-azahexadecanoyl)-4-hydroxy-N-(4-(4-methylthiazol-5-yl)benzyl)pyrrolidine-2-carboxamide], the IC50 is 150 nM.

In the case of `Cc1ncsc1-c1ccc(CNC(=O)[C@@H]2C[C@@H](O)CN2C(=O)[C@@H](NC(=O)CCCCCCCNC(=O)CN2CCN(c3ccc(C(=O)Nc4n[nH]c5ccc(Cc6cc(F)cc(F)c6)cc45)c(NC4CCOCC4)c3)CC2)C(C)(C)C)cc1` [CPD-061, (2S,4R)-1-((S)-2-(8-(2-(4-(4-((5-(3,5-Difluorobenzyl)-1H-indazol-3-yl)carbamoyl)-3-((tetrahydro-2H-pyran-4-yl)amino)phenyl)piperazin-1-yl)acetamido)octanamido)-3,3-dimethylbutanoyl)-4-hydroxy-N-(4-(4-methylthiazol-5-yl)benzyl)pyrrolidine-2-carboxamide], the IC50 is more than 1000 nM.

Take `Cc1ncsc1-c1ccc(CNC(=O)[C@@H]2C[C@@H](O)CN2C(=O)[C@@H](NC(=O)CCCCCCCCC(=O)N2CCN(c3ccc(C(=O)Nc4n[nH]c5ccc(Cc6cc(F)cc(F)c6)cc45)c(NC4CCOCC4)c3)CC2)C(C)(C)C)cc1` [CPD-034, (2S,4R)-1-((S)-2-(10-(4-(4-((5-(3,5-Difluorobenzyl)-1H-indazol-3-yl)carbamoyl)-3-((tetrahydro-2H-pyran-4-yl)amino)phenyl)piperazin-1-yl)-10-oxodecanamido)-3,3-dimethylbutanoyl)-4-hydroxy-N-(4-(4-methylthiazol-5-yl)benzyl)pyrrolidine-2-carboxamide]: the IC50 came out at 300 nM.

Take `Cc1ncsc1-c1ccc(CNC(=O)[C@@H]2C[C@@H](O)CN2C(=O)[C@@H](NC(=O)CCOCCOCCOCCOCCC(=O)N2CCN(c3cccc(-c4cnc5ccc(N6CCC[C@@H]6c6cccc(F)c6)nn45)n3)CC2)C(C)(C)C)cc1` [CPD-019, (2S,4R)-1-((S)-2-(tert-butyl)-19-(4-(6-(6-((R)-2-(3-Fluorophenyl)pyrrolidin-1-yl)imidazo[1,2-b]pyridazin-3-yl)pyridin-2-yl)piperazin-1-yl)-4,19-dioxo-7,10,13,16-tetraoxa-3-azanonadecanoyl)-4-hydroxy-N-(4-(4-methylthiazol-5-yl)benzyl)pyrrolidine-2-carboxamide]: the IC50 worked out at 500 nM.

The assay is the same for the next values; noted with them: Homo sapiens, 72 h; Table 3; KM12 cell viability, CellTiter-Glo, 3 days; read-out: IC50.
Take `O=C1CCC(N2C(=O)c3ccc(CN4CCN(c5cccc(-c6cnc7ccc(N8CCC[C@@H]8c8cccc(F)c8)nn67)n5)CC4)cc3C2=O)C(=O)N1` (stereo partly drawn) [TR-197, 2-(2,6-Dioxopiperidin-3-yl)-5-((4-(6-(6-((R)-2-(3-fluorophenyl)pyrrolidin-1-yl)imidazo[1,2-b]pyridazin-3-yl)pyridin-2-yl)piperazin-1-yl)methyl)isoindoline-1,3-dione]: the IC50 was 67.1 nM.

For the compound `O=C1CCC(N2Cc3ccc(CCCN4CCN(c5cccc(-c6cnc7ccc(N8CCC[C@@H]8c8cccc(F)c8)nn67)n5)CC4)cc3C2=O)C(=O)N1` (stereo partly drawn) [TR-185, 3-(6-(3-(4-(6-(6-((R)-2-(3-fluorophenyl)pyrrolidin-1-yl)imidazo[1,2-b]pyridazin-3-yl)pyridin-2-yl)piperazin-1-yl)propyl)-1-oxoisoindolin-2-yl)piperidine-2,6-dione], the IC50 came out at 17.1 nM.

Regarding `O=C(CN1CCN(c2cccc(-c3cnc4ccc(N5CCC[C@@H]5c5cccc(F)c5)nn34)n2)CC1)NCCCCCNc1ccc2c(c1)C(=O)N(C1CCC(=O)NC1=O)C2=O` (stereo partly drawn) [TR-131, N-(5-((2-(2,6-dioxopiperidin-3-yl)-1,3-dioxoisoindolin-5-yl)amino)pentyl)-2-(4-(6-(6-((R)-2-(3-fluorophenyl)pyrrolidin-1-yl)imidazo[1,2-b]pyridazin-3-yl)pyridin-2-yl)piperazin-1-yl)acetamide], the IC50 was determined as 2.7 nM.

With `O=C(CN1CCN(c2cccc(-c3cnc4ccc(N5CCC[C@@H]5c5cccc(F)c5)nn34)n2)CC1)NCCOCCOCCOCCOCCNc1cccc2c1C(=O)N(C1CCC(=O)NC1=O)C2=O` (stereo partly drawn) [TR-108, N-(14-((2-(2,6-dioxopiperidin-3-yl)-1,3-dioxoisoindolin-4-yl)amino)-3,6,9,12-tetraoxatetradecyl)-2-(4-(6-(6-((R)-2-(3-fluorophenyl)pyrrolidin-1-yl)imidazo[1,2-b]pyridazin-3-yl)pyridin-2-yl)piperazin-1-yl)acetamide], the IC50 came to 4 nM.

Take `O=C1CCC(N2C(=O)c3ccc(N4CC(N5CCN(c6cccc(-c7cnc8ccc(N9CCC[C@@H]9c9cccc(F)c9)nn78)n6)CC5)C4)cc3C2=O)C(=O)N1` (stereo partly drawn) [TR-184, 2-(2,6-dioxopiperidin-3-yl)-5-(3-(4-(6-(6-((R)-2-(3-fluorophenyl)pyrrolidin-1-yl)imidazo[1,2-b]pyridazin-3-yl)pyridin-2-yl)piperazin-1-yl)azetidin-1-yl)isoindoline-1,3-dione]: the IC50 was 9.3 nM.

For `O=C(CN1CCN(c2ccc(C(=O)Nc3n[nH]c4ccc(Cc5cc(F)cc(F)c5)cc34)c(NC3CCOCC3)c2)CC1)NCCOCCOCCNc1cccc2c1C(=O)N(C1CCC(=O)NC1=O)C2=O` (stereo not drawn) [TR-153, N-(5-(3,5-Difluorobenzyl)-1H-indazol-3-yl)-4-(4-(2-((2-(2-(2-((2-(2,6-dioxopiperidin-3-yl)-1,3-dioxoisoindolin-4-yl)amino)ethoxy)ethoxy)ethyl)amino)-2-oxoethyl)piperazin-1-yl)-2-((tetrahydro-2H-pyran-4-yl)amino)benzamide], the IC50 was 6.3 nM.

Regarding `O=C(CN1CCN(c2ccc(C(=O)Nc3n[nH]c4ccc(Cc5cc(F)cc(F)c5)cc34)c(NC3CCOCC3)c2)CC1)NCCCCNc1ccc2c(c1)C(=O)N(C1CCC(=O)NC1=O)C2=O` (stereo not drawn) [TR-156, N-(5-(3,5-Difluorobenzyl)-1H-indazol-3-yl)-4-(4-(2-((4-((2-(2,6-dioxopiperidin-3-yl)-1,3-dioxoisoindolin-5-yl)amino)butyl)amino)-2-oxoethyl)piperazin-1-yl)-2-((tetrahydro-2H-pyran-4-yl)amino)benzamide], the IC50 is 3.3 nM.

With `O=C(CN1CCN(c2cccc(-c3cnc4ccc(N5CCC[C@@H]5c5cccc(F)c5)nn34)n2)CC1)NCCCCNc1ccc2c(c1)C(=O)N(C1CCC(=O)NC1=O)C2=O` (stereo partly drawn) [TR-124, N-(4-((2-(2,6-dioxopiperidin-3-yl)-1,3-dioxoisoindolin-5-yl)amino)butyl)-2-(4-(6-(6-((R)-2-(3-fluorophenyl)pyrrolidin-1-yl)imidazo[1,2-b]pyridazin-3-yl)pyridin-2-yl)piperazin-1-yl)acetamide], the IC50 is 2.8 nM.

Turning to `O=C1CCC(N2Cc3cc(C#CC(=O)N4CCN(c5cccc(-c6cnc7ccc(N8CCC[C@@H]8c8cccc(F)c8)nn67)n5)CC4)ccc3C2=O)C(=O)N1` (stereo partly drawn) [TR-203], the IC50 was 3.7 nM.

With `O=C(CN1CCN(c2ccc(C(=O)Nc3n[nH]c4ccc(Cc5cc(F)cc(F)c5)cc34)c(NC3CCOCC3)c2)CC1)NCCOCCOCCOCCNc1ccc2c(c1)C(=O)N(C1CCC(=O)NC1=O)C2=O` (stereo not drawn) [TR-163, N-(5-(3,5-Difluorobenzyl)-1H-indazol-3-yl)-4-(4-(14-((2-(2,6-dioxopiperidin-3-yl)-1,3-dioxoisoindolin-5-yl)amino)-2-oxo-6,9,12-trioxa-3-azatetradecyl)piperazin-1-yl)-2-((tetrahydro-2H-pyran-4-yl)amino)benzamide], the IC50 turned out to be 6.3 nM.

Turning to `O=C1CCC(N2Cc3cc(NCCN4CCN(c5cccc(-c6cnc7ccc(N8CCC[C@@H]8c8cccc(F)c8)nn67)n5)CC4)ccc3C2=O)C(=O)N1` (stereo partly drawn) [TR-191, 3-(5-((2-(4-(6-(6-((R)-2-(3-fluorophenyl)pyrrolidin-1-yl)imidazo[1,2-b]pyridazin-3-yl)pyridin-2-yl)piperazin-1-yl)ethyl)amino)-1-oxoisoindolin-2-yl)piperidine-2,6-dione], the IC50 was 5.4 nM.
